Values quoted from earlier work in patent publication EP0349956A1, “Azacyclic compounds and their preparation und use” (NOVO NORDISK A/S, priority 1988, dated 1990).
Where two headings read alike, the source gives them in different places.

Target: muscarinic receptor in the CNS

³H-Oxotremorine-M
Kd (first of three different sites labelled by ³H-Oxo (high affinity)): 1.8 nM
Kd (second of three different sites labelled by ³H-Oxo (medium affinity)): 20 nM
Kd (third of three different sites labelled by ³H-Oxo (not determined under the present conditions), read-out: affinity): 3000 nM
